Measurements published in article PMC6010021, “Mono- and di-thiocarbamate inhibition studies of the δ-carbonic anhydrase TweCAδ from the marine diatom Thalassiosira weissflogii” (Journal of Enzyme Inhibition and Medicinal Chemistry, 2018).

Each molecule was assayed against T1, TweCAδ (Conticribra weissflogii, UniProt Q5U9J1) (assay: stopped-flow CO2 hydrase assay). Settings: read-out: RR^1NCS2M (16-36) / KI (nM)^a / TweCAδ.
T1 construct: gene ca1; recombinant protein produced as reported earlier by the group
T1 sequence (Q5U9J1 1-281): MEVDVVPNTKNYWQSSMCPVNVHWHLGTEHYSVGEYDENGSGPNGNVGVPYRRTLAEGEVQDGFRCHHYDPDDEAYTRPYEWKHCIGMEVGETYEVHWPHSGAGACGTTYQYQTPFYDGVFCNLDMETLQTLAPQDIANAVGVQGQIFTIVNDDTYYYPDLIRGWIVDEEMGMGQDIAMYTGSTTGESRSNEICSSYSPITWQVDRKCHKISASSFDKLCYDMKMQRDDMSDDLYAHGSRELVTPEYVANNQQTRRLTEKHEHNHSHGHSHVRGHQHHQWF
Type: biochemical
`CCCN(CCC)C(=O)S` [compound 1, MTC 1] gave a Ki of 807 nM.
`CCCCN(CC)C(=O)S` [compound 2, MTC 2] showed a Ki of 783 nM.
`CCCCN(CCCC)C(=O)S` [compound 3, MTC 3] showed a Ki of 1140 nM.
For `CC(C)CN(CC(C)C)C(=O)S` [compound 4, MTC 4], the Ki was greater than 20000 nM.
In the case of `CCOC(=O)CN(C)C(=O)S` [compound 5, MTC 5], the Ki is reported as greater than 20000 nM.
Work on `O=C(S)N1CCOCC1` [compound 6, MTC 6] yielded a Ki greater than 20000 nM.
With `CN1CCN(NC(=O)S)CC1` [compound 7, MTC 7] the Ki was 487 nM.
With `O=C(CN1CCN(C(=O)S)CC1)NC1CCCCC1` [compound 9, MTC 9] the Ki was 129 nM.
`CN(Cc1ccccc1)C(=O)S` [compound 10, MTC 10] was tested, and the Ki was greater than 20000 nM.
For `O=C(S)NCCc1ccccc1` [compound 11, MTC 11], the Ki was 997 nM.
Work on `COc1ccc(CCNC(=O)S)cc1OC` [compound 12, MTC 12] yielded a Ki of 67.7 nM.
`O=C(S)N1CCN(c2cccc(Cl)c2)CC1` [compound 13, MTC 13] gave a Ki of 1510 nM.
Work on `O=C(S)N1CCN(c2ccc(F)cc2)CC1` [compound 14, MTC 14] yielded a Ki of 1500 nM.
`O=C(S)N1CCN(c2ccc(C(F)(F)F)cc2)CC1` [compound 15, MTC 15] gave a Ki of 1150 nM.
`CN(C)CCNC(=S)S` [compound 16, DTC 16] was tested, and the Ki was 8410 nM.
`OCCCNC(=S)S` [compound 17, DTC 17] showed a Ki of 8690 nM.
With `OCCCCNC(=S)S` [compound 18, DTC 18] the Ki was 7170 nM.
For `OCCCCCNC(=S)S` [compound 19, DTC 19], the Ki was 8600 nM.
Work on `S=C(S)NC1CN2CCC1CC2` (stereo not shown) [compound 20, DTC 20] yielded a Ki greater than 20000 nM.
For `S=C(S)N[C@H]1CN2CCC1CC2` [compound 21, DTC 21], the Ki was greater than 20000 nM.
`S=C(S)N[C@@H]1CN2CCC1CC2` [compound 22, DTC 22] was tested, and the Ki was 7990 nM.
For `S=C(S)N1CCCCC1` [compound 23, DTC 23], the Ki was greater than 20000 nM.
Molecule `OC1CCCN(C(=S)S)C1` (stereo not shown) [compound 24, DTC 24] has a Ki greater than 20000 nM.
`O=C(O)C1CCCCN1C(=S)S` (stereo not shown) [compound 25, DTC 25] was tested, and the Ki was greater than 20000 nM.
`O=C(O)C1CCCN(C(=S)S)C1` (stereo not shown) [compound 26, DTC 26] was tested, and the Ki was 8430 nM.
`O=C(O)[C@@H]1CCCN(C(=S)S)C1` [compound 27, DTC 27] gave a Ki of 93.6 nM.
In the case of `O=C(O)[C@H]1CCCN(C(=S)S)C1` [compound 28, DTC 28], the Ki is reported as 556 nM.
For `O=C(O)C1CCN(C(=S)S)CC1` [compound 29, DTC 29], the Ki was 8980 nM.
`CC(=O)NC1CCCN(C(=S)S)C1` (stereo not shown) [compound 30, DTC 30] was tested, and the Ki was 783 nM.
For `CC1COCCN1C(=S)S` (stereo not shown) [compound 32, DTC 32], the Ki was greater than 20000 nM.
Work on `O=C(O)C1COCCN1C(=S)S` (stereo not shown) [compound 33, DTC 33] yielded a Ki greater than 20000 nM.
`O=C(CN1CCN(C(=S)S)CC1)NC1CCCCC1` [compound 34, DTC 34] gave a Ki of 791 nM.
For `S=C(S)NCCc1ccccc1` [compound 35, DTC 35], the Ki was 897 nM.
In the case of `NS(=O)(=O)c1ccc(CCNC(=S)S)cc1` [compound 36, DTC 36], the Ki is reported as 704 nM.
